# Patent US9364462B2, “Alpha-1-adrenergic receptor agonist therapy” (The Regents of the University of California, priority 2012, dated 2016)
# Columns and labels:
# kinase ERK = assay: ERK activation in neonatal rat cardiac muscle cells in vitro; type: cell-based; details: FIG. 1
# Text: FIG. 1. A61603 protects neonatal cardiac muscle cells.
# ERK = ERK activation in adult mouse cardiac muscle cells; type: cell-based; details: low concentration, FIG. 3 left
# Text: FIG. 3. A61603 protects adult cardiac muscle cells. In adult mouse cardiac muscle cells, A61603 at a low concentration activates ERK (left), and protects against a cardiotoxic cancer drug, (DOX) (right). These effects are not blocked by a beta-blocker, propranolol (Prop), which is current standard of care in heart failure therapy. That is, A61603 effects are additive to those of a beta-blocker. Knockout of the alpha-1A receptor (AKO) eliminates myocyte protection by A61603 (right), showing that the drug does indeed work through the alpha-1A, as expected.
# [1] = Blood pressure after acute intraperitoneal injection, indwelling arterial catheter; type: in vivo, mouse; details: 10 ng/kg injected acutely intraperitoneal
# Method: (§1) The classic effect of alpha-1-agonists is to increase BP by stimulating smooth muscle cells to contract. It could be a disadvantage in heart failure (HF) therapy to increase BP excessively. On the other hand, all current recommended drugs in HF reduce BP, and a drug that increased BP slightly might have a strong therapeutic advantage. […] The foregoing experiments provided the rationale to test treatment with A61603 at 10 ng/kg/d in a mouse model of cardiomyopathy and HF.
# [2] = 1 week subcutaneous infusion (osmotic minipump) in adult mice: BP and heart signaling; type: in vivo, mouse
# Method: FIG. 5. A61603 activates heart signaling at a BP-neutral dose. A61603 was infused subcutaneously (osmotic minipump) for 1 week in adult mice, and BP was measured daily. There was no change in average BP at the low dose, in agreement with the intravenous (IV) route in another study, and with phenylephrine (PE) given in humans (left side). BP effects of A61603 are absent in the alpha-1A KO (AKO), again showing the selectivity of the drug for that receptor (left). At the end of 1 week, the heart was removed to measure ERK activation, and increases in heart mRNAs and area (size), reflecting protective (ERK) adaptive (mRNAs, area) effects on heart muscle cells. A61603 at the low dose of 10 ng/kg/d increased these endpoints.
# as §1
# [3] = Doxorubicin cardiomyopathy model in adult mice; type: in vivo, mouse
# Method: FIG. 6. A61603 prevents doxorubicin cardiomyopathy. DOX was given to adult mice in a single intraperitoneal dose of 25 mg/kg. A61603 was infused subcutaneously (osmotic minipump) for 1 week (top left). We monitored mouse survival over the week, and at the end of 1 week measured heart cell damage and function.
# In summary, the alpha-1A agonist A61603 is protective and adaptive in cardiac muscle cells in vitro and in vivo. […] A61603 protects against mortality and cardiomyopathy, by preventing cell death and fibrosis. We chose a model of cardiomyopathy caused by a cancer drug, the anthracycline doxorubicin (DOX). Cancer drug cardiotoxicity is a common and growing problem. We used the same protocol that tested A61603 BP and signaling effects (FIG. 5).
# neurons in brain slices = assay: Adult mouse brain slices injured with H2O2 ex vivo; type: cell-based; details: H2O2, 2 h
# Method: FIG. 13. Brain slice model to study alpha-1A agonist in vitro. Thin brain slices were injured with hydrogen peroxide (H2O2), which simulates most forms of ischemic and traumatic injury at the cell level, in the presence or absence of A61603. After 2 hr, dead neurons (PI) and living neurons (ATP) were measured.
# FIG. 14. A61603 protects neurons in brain slices from oxidative injury in vitro. Slices were treated with H2O2 or vehicle (Veh) for 2 hr, in the presence of A61603, or absence (Veh).
# Studies were conducted in mice looking at alpha-1 agonist therapy, using A61603, in a model of traumatic brain injury. Alpha-1-ARs are 10 times more abundant in neurons than in cardiac myocytes, and the alpha-1A subtype is the most abundant. […]
# Alpha-1A-adrenergic receptors (α1A-ARs) have a protective trophic role in the heart. α1A-AR levels are high in the brain, and neuroprotection by norepinephrine is known. […] Ex vivo, we quantified ATP levels (marker for survival) in mouse brain slices injured by 10μ, M H2O2 and treated for 2 h with A61603 (a1A-AR specific agonist) or Vehicle. We quantified the number of dead neurons (propidium iodide (PI) positive) out of total (NeuN positive) in the same treated slices by immunohistochemistry (IHC). In vivo, we measured brain infarct size (BrdU-positive glial cells) after transient focal ischemia and reperfusion (IR) in α1ABKO and WT mice. […]
# cardiac myocytes = assay: Cardiac cell protective and adaptive (anabolic) effects in vitro, comparison of alpha-1-agonists; type: cell-based; details: neonatal rat and adult mouse cardiac myocytes, FIG. 1-3
# α1A receptors = details: cited from earlier work
# α1AR = details: Evans et al. (2011); cited from earlier work
structure (smiles),measurement,setting,value
"CS(=O)(=O)Nc1c(O)ccc2c1CCCC2C1=NCCN1 (centres unmarked) [A61603, N-[1-(4,5-dihydro-1H-imidazol-2-yl)-6-hydroxy-tetralin-5-yl]methanesulfonamide]",activation of the kinase ERK,kinase ERK,high efficacy and potency
same,ERK activation,ERK,activates ERK
same,BP,[1],does not increase BP
same,heart ERK activation,"[2]; 10 ng/kg/d, end of 1 week",increased
same,heart area (size),"[2]; 10 ng/kg/d, end of 1 week",increased
same,heart mRNAs,"[2]; 10 ng/kg/d, end of 1 week",increased
same,BP effects in alpha-1A KO (AKO),"[2]; alpha-1A KO mice, subcutaneous infusion 1 week",absent
same,average BP,"[2]; low dose, subcutaneous infusion 1 week, BP measured daily",no change
same,survival after DOX,"[3]; DOX 25 mg/kg ip single dose, A61603 sc infusion 1 week, vs vehicle",markedly improved
same,cell death by apoptosis (caspase 3/7 activity and TUNEL staining),"[3]; after DOX, end of 1 week",improved
same,"cell death by necrosis (serum CK, creatine kinase)","[3]; after DOX, end of 1 week",improved
same,indices of myocardial fibrosis,"[3]; after DOX, end of 1 week",improved
same,protective effect on survival in alpha-1A knockout (KO),[3]; alpha-1A KO mice after DOX,lost
same,heart function by echocardiography (fractional shortening),"[3]; surviving mice, end of 1 week",improved
same,ATP levels after H2O2,"neurons in brain slices; N=2, vehicle 5.5±0.5",8±1 nmol/mg protein
same,number of dead neurons caused by H2O2 (PI positive out of total NeuN positive),"neurons in brain slices; N=2, vehicle 86±5.3",46±0.3
same,potency and efficacy relative to several other alpha-1-agonists,cardiac myocytes,more potent (i.e. worked at a lower dose) and efficacious (i.e. had a larger total effect)
same,potency at α1A receptors relative to α1B or α1D sites,α1A receptors; Knepper et al. (1995),at least 35 fold
same,"potency as α1A AR agonist relative to phenylephrine, methoxamine and midodrine",α1A receptors,more potent
same,cAMP accumulation through α1AR relative to cirazoline,α1AR,stronger stimulator
